Read-outs that look alike come from different tables or passages of the source.
System: zebrafish embryos
Type: in vivo
Conditions: for Mild % / Mild dorsalization, number of embryos / Moderate % / Moderate dorsalization, number of embryos / Normal % / Normal, number of embryos / Severe % / Severe dorsalization, number of embryos / % Mild / % Moderate-Severe / Mild, number of embryos / Moderate-Severe, number of embryos / Total % Dorsalized: scored at 48 hpf
[1] = 10 μM, continuous exposure from 2 hpf
[2] = 10 μM, continuous exposure from 4 hpf
[3] = 10 μM, continuous exposure from 6 hpf
[4] = 10 μM, continuous exposure from 8 hpf
[5] = 10 μM, continuous exposure from 10 hpf
[6] = 10 μM, interval exposure 2-4 hpf
[7] = 10 μM, interval exposure 2-6 hpf
[8] = 10 μM, interval exposure 2-8 hpf
[9] = 10 μM, interval exposure 4-8 hpf
[10] = 10 μM, interval exposure 6-8 hpf
[11] = dorsomorphin 10 μM, treatment at 3 hpf

c1cc(-c2cnn3cc(-c4ccc(OCCN5CCCCC5)cc4)cnc23)ccn1 [Compound C/Dorsomorphin]
toxicity (10 μM): No toxicity was observed
Mild % [1]: 0%
Mild dorsalization, number of embryos [1]: 0
Moderate % [1]: 0%
Moderate dorsalization, number of embryos [1]: 0
Normal % [1]: 0%
Normal, number of embryos [1]: 0
Severe % [1]: 100%
Severe dorsalization, number of embryos [1]: 20
Mild % [2]: 0%
Mild dorsalization, number of embryos [2]: 0
Moderate % [2]: 100%
Moderate dorsalization, number of embryos [2]: 19
Normal % [2]: 0%
Normal, number of embryos [2]: 0
Severe % [2]: 0%
Severe dorsalization, number of embryos [2]: 0
Mild % [3]: 22%
Mild dorsalization, number of embryos [3]: 4
Moderate % [3]: 78%
Moderate dorsalization, number of embryos [3]: 14
Normal % [3]: 0%
Normal, number of embryos [3]: 0
Severe % [3]: 0%
Severe dorsalization, number of embryos [3]: 0
Mild % [4]: 85%
Mild dorsalization, number of embryos [4]: 17
Moderate dorsalization, number of embryos [4]: 0
Normal, number of embryos [4]: 3
Severe % [4]: 0%
Severe dorsalization, number of embryos [4]: 0
Mild % [5]: 0%
Mild dorsalization, number of embryos [5]: 0
Moderate % [5]: 0%
Moderate dorsalization, number of embryos [5]: 0
Normal % [5]: 100%
Normal, number of embryos [5]: 20
Severe % [5]: 0%
Severe dorsalization, number of embryos [5]: 0
dorsalization phenotype (10 μM, continuous from 2 hpf): severe dorsalization with high penetrance
dorsalization phenotype (10 μM, exposure from 4-8 and 6-8 hpf): mild to moderate dorsalization
Mild % [6]: 10%
Mild dorsalization, number of embryos [6]: 2
Moderate % [6]: 90%
Moderate dorsalization, number of embryos [6]: 18
Normal % [6]: 0%
Normal, number of embryos [6]: 0
Severe dorsalization, number of embryos [6]: 0
Mild % [7]: 17%
Mild dorsalization, number of embryos [7]: 3
Moderate % [7]: 44%
Moderate dorsalization, number of embryos [7]: 8
Normal % [7]: 0%
Normal, number of embryos [7]: 0
Severe % [7]: 39%
Severe dorsalization, number of embryos [7]: 7
Mild % [8]: 0%
Mild dorsalization, number of embryos [8]: 0
Moderate % [8]: 0%
Moderate dorsalization, number of embryos [8]: 0
Normal % [8]: 0%
Normal, number of embryos [8]: 0
Severe % [8]: 100%
Severe dorsalization, number of embryos [8]: 20
Mild % [9]: 65%
Mild dorsalization, number of embryos [9]: 15
Moderate % [9]: 35%
Normal % [9]: 0%
Normal, number of embryos [9]: 0
Severe % [9]: 0%
Severe dorsalization, number of embryos [9]: 0
Mild % [10]: 95%
Mild dorsalization, number of embryos [10]: 19
Moderate % [10]: 5%
Moderate dorsalization, number of embryos [10]: 1
Normal % [10]: 0%
Normal, number of embryos [10]: 0
Severe % [10]: 0%
Severe dorsalization, number of embryos [10]: 0
dorsalization phenotype (10 μM, treated at 2-4 hpf): severe dorsalization defects
dorsalization phenotype (10 μM, treated at 6-8 hpf): mild dorsalization
dorsalization phenotype (10 μM, treatment at 10 hpf and beyond): did not induce dorsalization
nonspecific toxicity (5-20 uM): absence of other nonspecific toxicity
dorsalization phenotype (5 to 10 μM from 3 hpf): progressively more severe dorsalization in a progressively higher percentage of embryos
dorsalization phenotype (10 (unit not given) from 3 hpf): moderate or severe dorsalization in nearly all embryos examined
% Mild (DM 0.2 μM from 3 hpf): 0%
% Moderate-Severe (DM 0.2 μM from 3 hpf): 0%
Mild, number of embryos (DM 0.2 μM from 3 hpf): 0
Moderate-Severe, number of embryos (DM 0.2 μM from 3 hpf): 0
Normal, number of embryos (DM 0.2 μM from 3 hpf): 60
Total % Dorsalized (DM 0.2 μM from 3 hpf): 0%
% Mild (DM 0.5 μM from 3 hpf): 0%
% Moderate-Severe (DM 0.5 μM from 3 hpf): 0%
Mild, number of embryos (DM 0.5 μM from 3 hpf): 0
Moderate-Severe, number of embryos (DM 0.5 μM from 3 hpf): 0
Normal, number of embryos (DM 0.5 μM from 3 hpf): 59
Total % Dorsalized (DM 0.5 μM from 3 hpf): 0%
% Mild (DM 1 μM from 3 hpf): 0%
% Moderate-Severe (DM 1 μM from 3 hpf): 0%
Mild, number of embryos (DM 1 μM from 3 hpf): 0
Moderate-Severe, number of embryos (DM 1 μM from 3 hpf): 0
Normal, number of embryos (DM 1 μM from 3 hpf): 60
Total % Dorsalized (DM 1 μM from 3 hpf): 0%
% Mild (DM 2 μM from 3 hpf): 0%
% Moderate-Severe (DM 2 μM from 3 hpf): 0%
Mild, number of embryos (DM 2 μM from 3 hpf): 0
Normal, number of embryos (DM 2 μM from 3 hpf): 60
Total % Dorsalized (DM 2 μM from 3 hpf): 0%
% Mild (DM 5 μM from 3 hpf): 19%
% Moderate-Severe (DM 5 μM from 3 hpf): 0%
Mild, number of embryos (DM 5 μM from 3 hpf): 11
Moderate-Severe, number of embryos (DM 5 μM from 3 hpf): 0
Normal, number of embryos (DM 5 μM from 3 hpf): 48
Total % Dorsalized (DM 5 μM from 3 hpf): 19%
% Mild (DM 7.5 μM from 3 hpf): 58%
% Moderate-Severe (DM 7.5 μM from 3 hpf): 42%
Mild, number of embryos (DM 7.5 μM from 3 hpf): 35
Moderate-Severe, number of embryos (DM 7.5 μM from 3 hpf): 25
Normal, number of embryos (DM 7.5 μM from 3 hpf): 0
Total % Dorsalized (DM 7.5 μM from 3 hpf): 100%
% Mild (DM 10 μM from 3 hpf): 3%
% Moderate-Severe (DM 10 μM from 3 hpf): 98%
Mild, number of embryos (DM 10 μM from 3 hpf): 1
Moderate-Severe, number of embryos (DM 10 μM from 3 hpf): 39
Normal, number of embryos (DM 10 μM from 3 hpf): 0
Total % Dorsalized (DM 10 μM from 3 hpf): 100%
% Dorsalized [11]: 100%
Dorsalized, number of embryos [11]: 26
Early lethality, number of embryos [11]: 3
Total survivors [11]: 26
dorsalization and toxicity (same conditions as C75 (3 hpf)): induced dorsalization with high penetrance and minimal toxicity
dorsalization phenotype (≦2 μM from 3 hpf): did not elicit dorsalization
cyclopia (phenotype of defective TGF-β signaling) (≧5 μM at ≦8 hpf): did not result in cyclopia

Source: patent US20100093760A1, “METHODS FOR IDENTIFYING COMPOUNDS THAT MODULATE CELL SIGNALING AND METHODS EMPLOYING SUCH COMPOUNDS” (The General Hospital Corporation, priority 2006, published 2010)
